Reference: US12637418B2, “Heterocyclic compounds as antagonist of NMDA” (TAKEDA PHARMACEUTICAL COMPANY LIMITED, priority 2019, dated 2026)

Molecular target: NMDA receptor composed of four subunits including 2 sets of heterodimers of NR1 and NR2B (human GRIN1 and GRIN2B expressed in HEK293 cell) (Homo sapiens, UniProt Q13224)
Assay: NR2B Ca^2+ influx assay
Type: cell-based
Details: 10 μM final compound concentration; 30 μM glutamic acid and 30 μM glycine; HEK293 cells expressing GRIN1 and GRIN2B; Fluo-4 fluorescence
From the text: To confirm the “antagonistic action on an NMDA receptor containing the NR2B subunit” of the compound of the present invention, human embryonic kidney cell expressing the “NMDA receptor composed of four subunits including 2 sets of heterodimers of NR1 and NR2B”, specifically HEK293 cell expressing human glutamate ionotropic receptor NMDA type subunit 1 (GRIN1) and human glutamate ionotropic receptor NMDA type subunit 2B (GRIN2B), was used and the activation suppressive effect on the receptors was measured.
HEK293 cells that express GRIN1 and GRIN2B were purchased from ChanTest (Human NMDA (NR1/NR2B) Receptor-expressing, stable replicating cell line (HEK293) catalog No. CT6121).
As an index of the NMDA receptor activation, intracellular calcium ion (Ca^2+) influx caused by the binding of glycine and glutamic acid with NR1 and NR2B, respectively, was used.
HEK293 cells that express GRIN1 and GRIN2B were cultured in DMEM/F-12 (COSMO BIO, 10-092-CM) medium added with 10% FBS (fetal bovine serum, AusGene), 100 units/mL penicillin, 100 μg/mL streptomycin, 500 μg/mL neomycin, 100 μg/mL Zeocin (registered trade mark, Invitrogen), 5 μg/mL Blasticidin in a cell culture flask in an incubator (under 37° C., 5% CO2).
The cells were detached from the flask with trypsin the day before the assay, suspended in a seeding medium (DMEM (Invitrogen, 31053) added with 10% FBS, 100 units/mL penicillin, 100 μg/mL streptomycin) at 8×10^5 cells/mL, seeded by 25 μL per well in a 384-well plate (Falcon, 356663) at 20000 cells/well, and cultured overnight in an incubator. On the day of the assay, tetracycline (Wako Pure Chemical Industries, Ltd., 209-16561) was diluted with the seeding medium at 2 μg/mL, added at 25 μL/well to the plate seeded with the cells, and cultured for 2 hr in an incubator. Thereafter, the medium was removed, and the cells were washed with 50 μL/well assay buffer (137 mM NaCl, 4 mM KCl, 1.8 mM CaCl2, 10 mM HEPES (pH 7.2), 10 mM Glucose, 0.1% BSA). Then, a loading buffer (assay buffer added with 2.5 μM Fluo-4AM, 2 mM Amaranth, 1 mM Tartrazine) was added at 25 μL/well, and the cells were incubated in the incubator for 30 min, and at room temperature for 15 min. A solution of the Example compound diluted with the above-mentioned assay buffer at 30 μM (final concentration 10 μM) was added at 25 μL/well, and the cells were left standing for 15 min at room temperature. Using FDSS7000EX/μCELL (Hamamatsu Photonics K.K.), an assay buffer containing 30 μM glutamic acid and 30 μM glycine was added at 25 μL/well, and fluorescence signals with wavelengths of Excitation 480 nm and Emission 540 nm were measured every 3 seconds for 5 min. The inhibitory activity was calculated as a relative activity value (inhibitory rate) that inhibits 100% of the cumulative value of the fluorescence value of a well added with an assay buffer free of glutamic acid, glycine, relative to the cumulative value of the fluorescence value of each well.

Chain of NMDA receptor composed of four subunits including 2 sets of heterodimers of NR1 and NR2B (human GRIN1 and GRIN2B expressed in HEK293 cell) (Q13224 27-1484, other chains not shown): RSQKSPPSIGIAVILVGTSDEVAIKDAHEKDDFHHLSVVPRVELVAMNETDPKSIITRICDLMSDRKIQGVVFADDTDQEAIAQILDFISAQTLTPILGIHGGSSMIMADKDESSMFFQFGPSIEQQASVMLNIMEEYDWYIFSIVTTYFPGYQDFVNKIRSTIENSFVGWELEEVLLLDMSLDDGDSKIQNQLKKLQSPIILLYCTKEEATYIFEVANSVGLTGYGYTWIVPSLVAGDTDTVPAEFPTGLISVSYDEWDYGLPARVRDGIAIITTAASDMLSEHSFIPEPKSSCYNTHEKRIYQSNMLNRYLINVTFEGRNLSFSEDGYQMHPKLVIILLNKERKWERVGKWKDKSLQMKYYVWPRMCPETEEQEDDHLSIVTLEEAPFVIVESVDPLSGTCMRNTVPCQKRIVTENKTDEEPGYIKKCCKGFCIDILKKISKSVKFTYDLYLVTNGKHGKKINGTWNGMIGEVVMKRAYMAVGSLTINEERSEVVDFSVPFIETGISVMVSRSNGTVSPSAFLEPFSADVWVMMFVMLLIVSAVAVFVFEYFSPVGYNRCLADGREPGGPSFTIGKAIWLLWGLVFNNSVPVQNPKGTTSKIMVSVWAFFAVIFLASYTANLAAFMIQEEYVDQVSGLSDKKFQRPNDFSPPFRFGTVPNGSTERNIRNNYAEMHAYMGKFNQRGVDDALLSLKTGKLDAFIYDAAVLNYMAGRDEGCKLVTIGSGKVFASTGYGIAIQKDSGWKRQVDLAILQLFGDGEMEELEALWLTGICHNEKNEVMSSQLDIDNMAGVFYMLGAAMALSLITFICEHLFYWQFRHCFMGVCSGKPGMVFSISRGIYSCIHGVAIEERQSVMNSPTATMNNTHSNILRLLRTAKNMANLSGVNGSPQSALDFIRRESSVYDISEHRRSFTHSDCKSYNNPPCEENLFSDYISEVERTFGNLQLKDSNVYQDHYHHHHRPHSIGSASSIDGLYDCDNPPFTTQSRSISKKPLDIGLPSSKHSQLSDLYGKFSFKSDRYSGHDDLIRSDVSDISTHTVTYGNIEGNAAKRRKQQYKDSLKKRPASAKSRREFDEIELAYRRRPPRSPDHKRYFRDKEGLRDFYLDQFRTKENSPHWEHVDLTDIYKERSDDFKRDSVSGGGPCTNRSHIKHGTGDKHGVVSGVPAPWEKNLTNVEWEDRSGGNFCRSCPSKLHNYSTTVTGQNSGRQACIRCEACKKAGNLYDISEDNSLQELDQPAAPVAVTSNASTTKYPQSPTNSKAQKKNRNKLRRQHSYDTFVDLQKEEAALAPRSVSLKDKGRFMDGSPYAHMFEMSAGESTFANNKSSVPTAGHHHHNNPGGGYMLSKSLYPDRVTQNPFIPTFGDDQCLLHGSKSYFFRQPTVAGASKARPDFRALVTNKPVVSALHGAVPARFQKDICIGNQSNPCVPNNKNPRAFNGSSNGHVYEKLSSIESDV

SMILES | inhibitory rate (10 μM compound concentration)
COc1cnc(C#N)cc1CNC(=O)c1ccc(OC(F)(F)F)cc1 [Example 29, N-[(2-cyano-5-methoxypyridin-4-yl)methyl]-4-(trifluoromethoxy)-bezamide] | 92
COc1cnc(C#N)cc1CNC(=O)c1ccc(C(F)(F)F)c(F)c1 [Example 30, N-[(2-cyano-5-methoxypyridin-4-yl)methyl]-3-fluoro-4-(trifluoromethyl)-bezamide] | 87

Same assay, conditions: 10 μM final compound concentration; 30 μM glutamic acid and 30 μM glycine; HEK293 cells expressing GRIN1 and GRIN2B; Fluo-4 fluorescence; read-out: inhibitory rate (10 μM compound concentration)

SMILES | inhibition at 10 µM
COc1cc(C#N)cc(CNC(=O)c2cnc(OC(F)F)c(F)c2)c1 [Example 24, N-[(3-cyano-5-methoxyphenyl)-methyl]-6-(difluoromethoxy)-5-fluoropyridine-3-carboxamide] | 97%
COc1ccc(C#N)cc1CNC(=O)c1ccc(OC(F)(F)F)c(F)c1 [Example 11, N-[(5-cyano-2-methoxyphenyl)-methyl]-3-fluoro-4-(trifluoromethoxy)-benzamide] | 96%
COc1cc(C#N)cc(CNC(=O)c2cnc(OC(F)F)c(F)c2)c1F [Example 25, N-[(5-cyano-2-fluoro-3-methoxyphenyl)-methyl]-6-(difluoromethoxy)-5-fluoropyridine-3-carboxamide] | 89%
COc1c(F)cc(C#N)cc1CNC(=O)c1cnc(OC(F)F)c(F)c1 [Example 20, N-[(5-cyano-3-fluoro-2-methoxyphenyl)-methyl]-6-(difluoromethoxy)-5-fluoropyridine-3-carboxamide] | 97%
N#Cc1ccc(Br)c(CNC(=O)c2cnc(OC(F)F)c(F)c2)c1 [Example 2, N-[(2-bromo-5-cyanophenyl)methyl]-6-(difluoromethoxy)-5-fluoropyridine-3-carboxamide] | 92%
COc1ncc(C#N)cc1CNC(=O)c1ccc(C(F)(F)F)s1 [Example 16, N-[(5-cyano-2-methoxypyridin-3-yl)methyl]-5-(trifluoromethyl)thiophene-2-carboxamide] | 94%
COc1c(C#N)ccc(F)c1CNC(=O)c1cnc(OC(F)F)c(F)c1 [Example 15, N-[(3-cyano-6-fluoro-2-methoxyphenyl)-methyl]-(difluoromethoxy)-5-fluoropyridine-3-carboxamide] | 89%
N#Cc1ccc(C2CC2)c(CNC(=O)c2ccc(OC(F)F)c(F)c2)c1 [Example 6, N-[(5-cyano-2-cyclopropylphenyl)-methyl]-4-(difluoromethoxy)-3-fluorobenzamide] | 93%
COc1c(CNC(=O)c2cnc(OC(F)F)c(F)c2)cc(C#N)nc1C [Example 27, N-[(6-cyano-3-methoxy-2-methyl-pyridin-4-yl)methyl]-6-(difluoromethoxy)-5-fluoropyridine-3-carboxamide] | 77%
Cc1c(C#N)ccc(F)c1CNC(=O)c1cnc(OC(F)F)c(F)c1 [Example 18, N-[(3-cyano-6-fluoro-2-methylphenyl)-methyl]-6-(difluoromethoxy)-5-fluoropyridine-3-carboxamide] | 66%
COc1cnc(C#N)c(F)c1CNC(=O)c1cnc(OC(F)F)c(F)c1 [Example 22, N-[(2-cyano-3-fluoro-5-methoxypyridin-4-yl)methyl]-6-(difluoromethoxy)-5-fluoropyridine-3-carboxamide] | 94%
Cc1ccc(C#N)cc1CNC(=O)c1cnc(OC(F)F)c(F)c1 [Example 8, N-[(5-cyano-2-methylphenyl)-methyl]-6-(difluoromethoxy)-5-fluoropyridine-3-carboxamide] | 83%
N#Cc1ccc(Br)c(CNC(=O)c2ccc(OC(F)F)c(F)c2)c1 [Example 3, N-[(2-bromo-5-cyanophenyl)methyl]-4-(difluoromethoxy)-3-fluorobenzamide] | 93%
N#Cc1ccc(OCC(F)F)c(CNC(=O)c2cnc(OC(F)F)c(F)c2)c1 [Example 14, N-{[5-cyano-2-(2,2-difluoroethoxy)-phenyl]-methyl}-6-(difluoromethoxy)-5-fluoropyridine-3-carboxamide] | 92%
COc1ccc(C#N)cc1CNC(=O)c1ccc(OC(F)F)c(F)c1 [Example 10, N-[(5-cyano-2-methoxyphenyl)-methyl]-4-(difluoromethoxy)-3-fluorobenzamide] | 95%
COc1cc(F)c(C#N)cc1CNC(=O)c1cnc(OC(F)F)c(F)c1 [Example 23, N-[(5-cyano-4-fluoro-2-methoxyphenyl)-methyl]-6-(difluoromethoxy)-5-fluoropyridine-3-carboxamide] | 98%
COc1ccc(C#N)nc1CNC(=O)c1cnc(OC(F)F)c(F)c1 [Example 19, N-[(6-cyano-3-methoxypyridin-2-yl)methyl]-6-(difluoromethoxy)-5-fluoropyridine-3-carboxamide] | 89%
N#Cc1ccc(F)c(CNC(=O)c2cnc(OC(F)F)c(F)c2)c1 [Example 12, N-[(5-cyano-2-fluorophenyl)methyl]-6-(difluoromethoxy)-5-fluoropyridine-3-carboxamide] | 91%
N#Cc1ccc(C2CC2)c(CNC(=O)c2ccc(OC(F)(F)F)c(F)c2)c1 [Example 4, N-[(5-cyano-2-cyclopropylphenyl)-methyl]-3-fluoro-4 (trifluoromethoxy)-benzamide] | 94%
COc1ccc(C#N)cc1CNC(=O)c1cnc(OC(F)F)c(F)c1 [Example 7, N-[(5-cyano-2-methoxyphenyl)methyl]-6-(difluoromethoxy)-5-fluoropyridine-3-carboxamide] | 94%
COc1cc(C#N)cc(CNC(=O)c2cnc(OC)c(F)c2)c1F [Example 26, N-[(5-cyano-2-fluoro-3-methoxyphenyl)-methyl]-5-fluoro-6-methoxypyridine-3-carboxamide] | 75%
N#Cc1ccc(OCC(F)(F)F)c(CNC(=O)c2cnc(OC(F)F)c(F)c2)c1 [Example 13, N-{[5-cyano-2-(2,2,2-trifluoroethoxy)-phenyl]-methyl}-6-(difluoromethoxy)-5-fluoropyridine-3-carboxamide] | 93%
COc1ncc(C(=O)NCc2cc(C#N)cc(F)c2OC)cc1F [Example 21, N-[(5-cyano-3-fluoro-2-methoxyphenyl)-methyl]-5-fluoro-6-methoxypyridine-3-carboxamide] | 94%
N#Cc1ccc(Br)c(CNC(=O)c2ccc(OC(F)(F)F)c(F)c2)c1 [Example 1, N-[(2-bromo-5-cyanophenyl)methyl]-3-fluoro-4-(trifluoromethoxy)benzamide] | 86%
COc1cnc(C#N)cc1CNC(=O)c1cnc(OC(F)F)c(F)c1 [Example 28, N-[(2-cyano-5-methoxypyridin-4-yl)methyl]-6-(difluoromethoxy)-5-fluoropyridine-3-carboxamide] | 91%
N#Cc1ccc(C2CC2)c(CNC(=O)c2cnc(OC(F)F)c(F)c2)c1 [Example 5, N-[(5-cyano-2-cyclopropylphenyl)-methyl]-6-(difluoromethoxy)-5-fluoropyridine-3-carboxamide] | 95%

Tested on: not given
Assay: not given
Details: rodents; cited from earlier work

SMILES | number of occurrence and depth of cortical spreading depression
C[C@@H](CN1CCC(Cc2ccccc2)CC1)[C@@H](O)c1ccc(O)cc1 [Ro25-6981] | suppress the number of occurrence and the depth of cortical spreading depression
